From PubChem BioAssay (NCI)
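48-hour exposure; five concentrations; linearly interpolated endpoints. Abbreviation: GI50, concentration required for 50% inhibition of growth. TGI is the concentration that stops growth completely.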

Assays:
Assay in all cases: inhibition of tumour cell growth, NCI panel, 48 h
HOP-92 NSCLC = system: HOP-92 NSCLC
HT29 colon = system: HT29 colon
KM12 colon = system: KM12 colon
NCI-H226 lung = system: NCI-H226 lung
PC-3 prostate = system: PC-3 prostate
DLD-1 colon = system: DLD-1 colon
DMS 114 small cell lung = system: DMS 114 small cell lung
DMS 273 small cell lung = system: DMS 273 small cell lung
KM20L2 colon = system: KM20L2 colon
LXFL 529 NSCLC = system: LXFL 529 NSCLC
M19-MEL melanoma = system: M19-MEL melanoma
SNB-78 CNS = system: SNB-78 CNS
XF 498 CNS = system: XF 498 CNS

Cc1ccc2c(c1)CC1(C2)Cc2ccc(C)cc2C1=O (centres undefined)
TGI (HOP-92 NSCLC): 66.3 µM
TGI (HT29 colon): 56.2 µM
TGI (KM12 colon): 53.6 µM
TGI (NCI-H226 lung): 61.6 µM
TGI (PC-3 prostate): > 100 µM

C[C@H]1S[C@H](c2c(F)cccc2F)n2c1nc1ccccc12
TGI (HT29 colon): > 100 µM
TGI (KM12 colon): > 100 µM
TGI (NCI-H226 lung): > 100 µM
TGI (PC-3 prostate): > 100 µM

CCOC(=O)C1=NNC(C(=O)c2ccccc2)C1c1ccccc1 (centres undefined)
TGI (HOP-92 NSCLC): 4.46 µM
TGI (HT29 colon): 5.3 µM
TGI (KM12 colon): 19.8 µM
TGI (NCI-H226 lung): 39.5 µM
TGI (PC-3 prostate): 22.5 µM

Nc1ncc2c(n1)-c1ccccc1OC2N1CCOCC1 (centres undefined)
TGI (HOP-92 NSCLC): > 100 µM
TGI (HT29 colon): > 100 µM
TGI (KM12 colon): > 100 µM
TGI (NCI-H226 lung): > 100 µM
TGI (PC-3 prostate): > 100 µM

Cc1ccc(O)c(C(c2cc(C)ccc2O)c2cc([N+](=O)[O-])ccc2O)c1
TGI (HOP-92 NSCLC): 38.9 µM
TGI (HT29 colon): 38.3 µM
TGI (KM12 colon): 21.2 µM
TGI (NCI-H226 lung): 55.8 µM
TGI (PC-3 prostate): 21.3 µM

Cc1ccc(O)c(C2=NNC(c3cccc(Cl)c3)C2)c1 (centres undefined)
TGI (HOP-92 NSCLC): 81.7 µM
TGI (HT29 colon): > 100 µM
TGI (KM12 colon): > 100 µM
TGI (NCI-H226 lung): > 100 µM
TGI (PC-3 prostate): > 100 µM

Cc1cc(S(=O)(=O)NC2=NCC(C)(C)CN2)c(S)cc1Cl
TGI (HT29 colon): 46.3 µM
TGI (KM12 colon): > 100 µM
TGI (NCI-H226 lung): 94.8 µM
TGI (PC-3 prostate): > 100 µM

COC(=O)[C@@H]1[C@H]2CC[C@]3(C)[C@@H](OC(C)=O)CC[C@H]3[C@@H]2CC[C@H]1C(C)=O
TGI (HOP-92 NSCLC): > 100 µM
TGI (HT29 colon): > 100 µM
TGI (KM12 colon): > 100 µM
TGI (NCI-H226 lung): > 100 µM
TGI (PC-3 prostate): > 100 µM

Cc1ccc(CN2CCN(Cc3ccc(C)o3)C(C)C2)o1 (centres undefined)
TGI (HOP-92 NSCLC): > 100 µM
TGI (HT29 colon): > 100 µM
TGI (KM12 colon): > 100 µM
TGI (NCI-H226 lung): > 100 µM
TGI (PC-3 prostate): > 100 µM

COc1cc(-c2ccccc2)cn2c1nc1ccccc12
TGI (HOP-92 NSCLC): 32 µM
TGI (HT29 colon): 35.5 µM
TGI (KM12 colon): 36.1 µM
TGI (NCI-H226 lung): 39.7 µM
TGI (PC-3 prostate): 50.8 µM

COc1ccc2[nH]c3c(O)c(-c4c(C)cc5c([nH]c6ccc(OC)cc65)c4O)c(C)cc3c2c1
TGI (HOP-92 NSCLC): 8.18 µM
GI50 (HT29 colon): 3.71 µM
TGI (HT29 colon): 7.6 µM
TGI (KM12 colon): 7.74 µM
TGI (NCI-H226 lung): 9.06 µM
TGI (PC-3 prostate): 7.69 µM

CC1N=C(c2ccccc2)OC1=O (centres undefined)
TGI (HOP-92 NSCLC): > 100 µM
TGI (HT29 colon): > 100 µM
TGI (KM12 colon): > 100 µM
TGI (NCI-H226 lung): > 100 µM
TGI (PC-3 prostate): > 100 µM

CC1(C)CCC[C@@]2(C)C1CC[C@@]1(CO1)[C@@H]2/C=C\C(C=O)CC=O (some centres undefined)
TGI (HOP-92 NSCLC): > 100 µM
TGI (HT29 colon): > 100 µM
TGI (KM12 colon): > 100 µM
TGI (NCI-H226 lung): > 100 µM
TGI (PC-3 prostate): > 100 µM

COC1(OC)C2C=CC1C([C@](C)(N)CO)C2 (some centres undefined)
TGI (HOP-92 NSCLC): > 100 µM
TGI (HT29 colon): > 100 µM
TGI (KM12 colon): > 100 µM
TGI (NCI-H226 lung): > 100 µM
TGI (PC-3 prostate): > 100 µM

COC(=O)C1=COC2OC3CC1C2C(C)O3 (centres undefined)
TGI (HOP-92 NSCLC): > 100 µM
TGI (HT29 colon): > 100 µM
TGI (KM12 colon): > 100 µM
TGI (NCI-H226 lung): > 100 µM
TGI (PC-3 prostate): > 100 µM

CN1N=C(c2ccccc2)c2cc(Cl)ccc2N=C1N/N=C/c1ccc(N(C)C)cc1
TGI (HT29 colon): > 100 µM
TGI (KM12 colon): > 100 µM
TGI (NCI-H226 lung): > 100 µM
TGI (PC-3 prostate): > 100 µM

CCOC(=O)c1csc(-c2cn(C)c3c2C(=O)C(OC)=CC3=O)n1
TGI (HOP-92 NSCLC): > 100 µM
TGI (HT29 colon): > 100 µM
TGI (KM12 colon): > 71.8 µM
TGI (NCI-H226 lung): > 100 µM
TGI (PC-3 prostate): > 100 µM

O=C(CCN1CCCC1)c1ccc(Oc2ccc(F)cc2)cc1
TGI (HOP-92 NSCLC): 41.5 µM
TGI (HT29 colon): > 100 µM
TGI (KM12 colon): 90.9 µM
TGI (NCI-H226 lung): > 100 µM
TGI (PC-3 prostate): > 100 µM

O=Cc1ccc(-c2ccc(S(=O)(=O)O)cc2)o1
TGI (HT29 colon): > 100 µM
TGI (KM12 colon): > 100 µM
TGI (NCI-H226 lung): > 100 µM
TGI (PC-3 prostate): > 100 µM

COC(=O)[C@H](C)N(C)C(=O)[C@H](C)N1[C@@H](c2ccccc2)COC1(C)C
TGI (HOP-92 NSCLC): > 100 µM
TGI (HT29 colon): > 100 µM
TGI (KM12 colon): > 100 µM
TGI (NCI-H226 lung): > 100 µM
TGI (PC-3 prostate): > 100 µM

CC(=O)c1cccc(Nc2nc3ccccc3c3[nH]c4ccccc4c23)c1
TGI (HOP-92 NSCLC): 22.2 µM
TGI (HT29 colon): 17 µM
TGI (KM12 colon): > 100 µM
TGI (PC-3 prostate): 40.9 µM

COc1ccc(C2=NN(C(=O)c3ccc(Cl)cc3)C(O)(c3cc(F)c(Cl)cc3Cl)C2)cc1 (centres undefined)
TGI (HOP-92 NSCLC): > 100 µM
TGI (HT29 colon): > 100 µM
TGI (KM12 colon): > 100 µM
TGI (NCI-H226 lung): > 100 µM
TGI (PC-3 prostate): > 100 µM

N[C@H]1CCN(c2c(F)cc3c(=O)c(C(=O)O)cn4c3c2Oc2c-4ccc3c2ccc2ccccc23)C1
TGI (HOP-92 NSCLC): > 49.6 µM
TGI (HT29 colon): > 100 µM
TGI (KM12 colon): > 62.7 µM
TGI (NCI-H226 lung): > 100 µM
TGI (PC-3 prostate): > 47.3 µM

O=C(O)CCC(NC(=O)c1ccc(CNc2nc3cc(C(F)(F)F)ccc3nc2C(=O)O)cc1)C(=O)O (centres undefined)
TGI (HOP-92 NSCLC): > 100 µM
TGI (HT29 colon): > 100 µM
TGI (KM12 colon): > 100 µM
TGI (NCI-H226 lung): > 100 µM
TGI (PC-3 prostate): > 100 µM

CCOC(=O)c1ccn2c(c1)c(C#N)c1nc3ccccc3nc12
TGI (DLD-1 colon): > 100 µM
TGI (DMS 114 small cell lung): > 100 µM
TGI (DMS 273 small cell lung): > 100 µM
TGI (KM12 colon): > 100 µM
TGI (KM20L2 colon): > 100 µM
TGI (LXFL 529 NSCLC): > 100 µM
TGI (M19-MEL melanoma): > 100 µM
TGI (SNB-78 CNS): 57.6 µM
TGI (XF 498 CNS): 93.3 µM

C1=Cc2cccc3occ(c23)C=C1
TGI (HOP-92 NSCLC): > 100 µM
TGI (HT29 colon): > 100 µM
TGI (KM12 colon): > 100 µM
TGI (NCI-H226 lung): > 100 µM
TGI (PC-3 prostate): > 100 µM

Cn1c(N)c(/C=C/C(=O)Oc2ccccc2)c(=O)n(C)c1=O
TGI (HOP-92 NSCLC): 93 µM
TGI (HT29 colon): > 100 µM
TGI (KM12 colon): > 100 µM
TGI (NCI-H226 lung): > 100 µM
TGI (PC-3 prostate): > 100 µM

COc1ccc(NC(/C(C(=O)C(=O)/C=C(\O)c2ccccc2)=C(\O)c2ccccc2)c2ccc(OC)cc2)cc1 (centres undefined)
TGI (HOP-92 NSCLC): 75.8 µM
TGI (HT29 colon): > 100 µM
TGI (KM12 colon): > 100 µM
TGI (NCI-H226 lung): > 100 µM
TGI (PC-3 prostate): > 100 µM

CC[C@]1(Cc2ccc(OC)c(OC)c2)C=[N+]([O-])O[C@H](OCc2ccccc2)[C@@H]1OC(C)=O
TGI (HOP-92 NSCLC): 77.3 µM
TGI (HT29 colon): 79.9 µM
TGI (KM12 colon): 58.8 µM
TGI (NCI-H226 lung): 53.8 µM
TGI (PC-3 prostate): 64.3 µM

Cc1nn(C(=O)c2ccc(Cl)cc2)c2c1C(c1ccc(Cl)cc1)SC(N)=N2 (centres undefined)
TGI (HOP-92 NSCLC): > 10 µM
TGI (HT29 colon): > 10 µM
TGI (KM12 colon): > 10 µM
TGI (NCI-H226 lung): > 10 µM
TGI (PC-3 prostate): > 10 µM

Nn1c(CCCCCCCCc2n[nH]c(=S)n2N)n[nH]c1=S
TGI (HOP-92 NSCLC): > 100 µM
TGI (HT29 colon): > 100 µM
TGI (KM12 colon): > 100 µM
TGI (NCI-H226 lung): > 100 µM
TGI (PC-3 prostate): > 100 µM

CCOC(=O)c1ccc(N(CCOS(=O)(=O)c2ccc(C)cc2)CCOS(=O)(=O)c2ccc(C)cc2)cc1
TGI (HOP-92 NSCLC): > 100 µM
TGI (HT29 colon): > 100 µM
TGI (KM12 colon): > 100 µM
TGI (PC-3 prostate): 75 µM
